Experiments:
CCR4 [1] = target: T1, CCR4 (Homo sapiens, UniProt P51679); test: CEM cell chemotaxis (migration) assay to CCL22 (MDC) in 100% Fetal Bovine Serum (FBS); type: cell-based; conditions: CEM cells in 100% FBS with 1% HEPEs; recombinant human CCL22 0.1 nM; 37° C. 60 minutes
T1 construct: CEM Cells Endogenous Express CCR4; endogenous in cells; host or cells: CEM cells
T1 sequence (P51679 1-360): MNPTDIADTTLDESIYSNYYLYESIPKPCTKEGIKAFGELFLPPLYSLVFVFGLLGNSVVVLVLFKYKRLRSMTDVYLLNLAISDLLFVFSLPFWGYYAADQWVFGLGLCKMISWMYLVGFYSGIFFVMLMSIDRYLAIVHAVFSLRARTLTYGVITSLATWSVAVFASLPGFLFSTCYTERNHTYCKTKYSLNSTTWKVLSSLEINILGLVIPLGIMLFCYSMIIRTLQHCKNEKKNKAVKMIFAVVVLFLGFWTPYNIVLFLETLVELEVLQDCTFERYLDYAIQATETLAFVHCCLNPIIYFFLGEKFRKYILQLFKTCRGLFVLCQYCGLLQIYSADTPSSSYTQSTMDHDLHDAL
Outline: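 Endogenously CCR4-expressing CEM cells in 100% FBS with 1% HEPES were preincubated with serially diluted compound (top final 10 μM) and allowed to migrate through 5 μm polycarbonate membranes toward 0.1 nM human CCL22 (EC50) for 60 min at 37 °C. Migrated cells were quantified by CyQUANT fluorescence.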

CCR4 [2] = target: T1, CCR4; test: CEM cell chemotaxis (migration) assay to CCL22 (MDC) in HBSS buffer with 0.1% BSA; type: cell-based; conditions: CEM cells in HBSS with 0.1% BSA; recombinant human CCL22 0.1 nM; 37° C. 60 minutes
Description: CEM Cells Endogenous Express CCR4
A chemotaxis assay can be used to determine the efficacy of potential receptor antagonists at blocking the migration mediated through chemokine receptors, such as CCR4. This assay is routinely performed using the ChemoTX® microchamber system with a 5 μm pore-sized polycarbonate membrane.
HBSS: CEM Cells are collected by centrifugation at 400×g at room temperature, then suspended at 5 million/ml in Hanks' Balanced Salt Solution (HBSS) buffer with 0.1% BSA. The compound being tested is serially diluted from a maximum final concentration of 10 μM (or an equivalent volume of its solvent (DMSO)) and is then added to the cell/buffer mixture. Separately, recombinant human CCL22 (MDC) at its EC50 concentration (0.1 nM) is placed in the lower wells of the ChemoTX® plate. The 5-μm (pore size) polycarbonate membrane was placed onto the plate, and 20 μL of the cell/compound mixture is transferred onto each well of the membrane. The plates are incubated at 37° C. for 60 minutes, after which the polycarbonate membranes are removed and 5 μl of the DNA-intercalating dye CyQUANT (Invitrogen, Carlsbad, CA) is added to the lower wells. The amount of fluorescence, corresponding to the number of migrated cells, is measured using a Spectrafluor Plus plate reader (TECAN, San Jose, CA).

SMILES | IC50 (CCR4 [1]) | IC50 (CCR4 [2])
C[C@@H](Nc1nc(N2CCN(S(=O)(=O)CCN(C)C)CC2)ncc1Cl)c1ccc(Cl)cc1Cl [Example 1.016] | 100 to 1000 nM | < 100 nM
C[C@@H]1CN(c2ncc(Cl)c(N[C@H](C)c3ccc(Cl)cc3Cl)n2)[C@@H](C)CN1C1CCCN(CCC(=O)O)C1 (some centres unmarked) [Example 1.017] | < 100 nM | < 100 nM
C[C@@H]1CN(c2ncc(Cl)c(N[C@H](C)c3ccc(Cl)cc3Cl)n2)CCN1C(=O)c1c[nH]c(=O)n(C)c1=O [Example 1.018] | > 1000 nM | > 1000 nM
C[C@@H]1CN(c2ncc(Cl)c(N[C@H](C)c3ccc(Cl)cc3Cl)n2)[C@@H](C)CN1C(=O)[C@H]1CCCN1CC(=O)O [Example 1.019] | 100 to 1000 nM | 100 to 1000 nM
C[C@@H](Nc1nc(C2=CCN(C(=O)CN(C)C)CC2)ncc1Cl)c1ccc(Cl)cc1Cl [Example 1.020] | < 100 nM | < 100 nM
C[C@@H](Nc1nc(N2CCC(C3CNC3)CC2)ncc1Cl)c1ccc(Cl)cc1Cl [Example 1.021] | < 100 nM | < 100 nM
C[C@@H](Nc1nc(N2CCN(C(=O)C3CCN(C)C3)CC2)ncc1Cl)c1ccc(Cl)cc1Cl (some centres unmarked) [Example 1.022] | < 100 nM | < 100 nM
C[C@@H](Nc1nc(N2CCN(C(=O)[C@H]3C[C@H](O)CN3)CC2)ncc1Cl)c1ccc(Cl)cc1Cl [Example 1.023] | < 100 nM | < 100 nM
C[C@@H](Nc1nc(N2CCN(C(=O)[C@H]3CCCN3C)CC2)ncc1Cl)c1ccc(Cl)cc1Cl [Example 1.024] | < 100 nM | < 100 nM
C[C@@H](Nc1nc(N2CCC(C(=O)N(C)CCN(C)C)CC2)ncc1Cl)c1ccc(Cl)cc1Cl [Example 1.025] | < 100 nM | < 100 nM
C[C@@H](Nc1nc(N2CCC(C(=O)NCCN(C)C)CC2)ncc1Cl)c1ccc(Cl)cc1Cl [Example 1.026] | < 100 nM | < 100 nM
C[C@@H](Nc1nc(C2=CCN(C(=O)[C@H]3CCCN3)CC2)ncc1Cl)c1ccc(Cl)cc1Cl [Example 1.027] | < 100 nM | < 100 nM
C[C@@H](Nc1nc(N2CC[C@@H](NC(=O)[C@H]3CCCN3)[C@@H](O)C2)ncc1Cl)c1ccc(Cl)cc1Cl [Example 1.028] | < 100 nM | < 100 nM
C[C@@H](Nc1nc(N2CC[C@H](NC(=O)[C@H]3CCCN3)C2)ncc1Cl)c1ccc(Cl)cc1Cl [Example 1.029] | < 100 nM | < 100 nM
C[C@@H](Nc1nc(N2CCN(C(=O)[C@H]3CCCN3)C(C)(C)C2)ncc1Cl)c1ccc(Cl)cc1Cl [Example 1.030] | 100 to 1000 nM | > 1000 nM
C[C@@H](Nc1nc(N2CC3CC2CN3C(=O)[C@H]2CCCN2)ncc1Cl)c1ccc(Cl)cc1Cl (some centres unmarked) [Example 1.031] | 100 to 1000 nM | 100 to 1000 nM
C[C@@H](Nc1nc(N2CCN(C(=O)C[C@H]3CCCN3)CC2)ncc1Cl)c1ccc(Cl)cc1Cl [Example 1.032] | < 100 nM | < 100 nM
C[C@@H](Nc1nc(N2CCN(C(=O)[C@H]3CCN3)CC2)ncc1Cl)c1ccc(Cl)cc1Cl [Example 1.033] | < 100 nM | < 100 nM
C[C@@H]1CN(c2ncc(Cl)c(N[C@H](C)c3ccc(Cl)cc3Cl)n2)[C@@H](C)CN1C(=O)[C@H]1CCCN1 [Example 1.034] | < 100 nM | < 100 nM
C[C@@H](Nc1nc(N2CCC(C3CCCN(CCC(=O)O)C3)CC2)ncc1Cl)c1ccc(Cl)cc1Cl (some centres unmarked) [Example 1.035] | < 100 nM | < 100 nM
C[C@@H]1CN(c2ncc(Cl)c(N[C@H](C)c3ccc(Cl)cc3Cl)n2)CCN1C(=O)N1CCNCC1 [Example 1.036] | > 1000 nM | > 1000 nM
C[C@@H](Nc1nc(N2CCN(C(=O)C3(C)CNC3)CC2)ncc1Cl)c1ccc(Cl)cc1Cl [Example 1.037] | 100 to 1000 nM | 100 to 1000 nM
C[C@@H]1CN(C(=O)[C@H]2CCCN2)CCN1c1ncc(Cl)c(N[C@H](C)c2ccc(Cl)cc2Cl)n1 [Example 1.038] | < 100 nM | < 100 nM
C[C@@H](Nc1nc(N2CCC(NC(=O)[C@H]3CCCN3)CC2)ncc1Cl)c1ccc(Cl)cc1Cl [Example 1.039] | < 100 nM | < 100 nM
C[C@@H](Nc1nc(N2CCN(C(=O)C(C)(C)N)CC2)ncc1Cl)c1ccc(Cl)cc1Cl [Example 1.040] | < 100 nM | < 100 nM
C[C@@H](Nc1nc(N2CCN(C(=O)CN(C)C)CC2)ncc1Cl)c1ccc(Cl)cc1Cl [Example 1.041] | < 100 nM | < 100 nM
C[C@@H]1CN(c2ncc(Cl)c(N[C@H](C)c3ccc(Cl)cc3Cl)n2)CCN1C(=O)[C@H]1CCCN1 [Example 1.042] | < 100 nM | < 100 nM
C[C@@H](Nc1nc(C2=CCN([C@H]3CCCN(CCO)C3)CC2)ncc1Cl)c1ccc(Cl)cc1Cl [Example 1.058] | < 100 nM | < 100 nM

Now from value to molecule:

IC50 (CCR4 [1]) | IC50 (CCR4 [2]) | SMILES
< 100 nM | < 100 nM | Cc1nc(N2CCN(C(=O)[C@H]3CCCN3)[C@H](CO)C2)nc(N[C@H](C)c2ccc(Cl)cc2Cl)c1Cl [Example 1.043]
< 100 nM | < 100 nM | C[C@@H](Nc1nc(N2CCN(C(=O)[C@H]3CCCCN3)CC2)ncc1Cl)c1ccc(Cl)cc1Cl [Example 1.044]
< 100 nM | < 100 nM | C[C@@H](Nc1nc(N2CCC(C3CCCNC3)CC2)ncc1Cl)c1ccc(Cl)cc1Cl (some centres unmarked) [Example 1.045]
< 100 nM | < 100 nM | C[C@@H](Nc1nc(N2CCN(C(=O)[C@H]3CCCN3CCO)CC2)ncc1Cl)c1ccc(Cl)cc1Cl [Example 1.046]
< 100 nM | < 100 nM | C[C@@H](Nc1nc(N2CCC(C3CCCN(CCO)C3)CC2)ncc1Cl)c1ccc(Cl)cc1Cl (some centres unmarked) [Example 1.047]
< 100 nM | < 100 nM | C[C@@H](Nc1nc(N2CCN(C(=O)[C@H]3CCCN3CCC(=O)O)CC2)ncc1Cl)c1ccc(Cl)cc1Cl [Example 1.048]
< 100 nM | < 100 nM | Cc1nc(N2CCN(C(=O)[C@H]3CCCN3)CC2)nc(N[C@H](C)c2ccc(Cl)cc2Cl)c1Cl [Example 1.049]
> 1000 nM | 100 to 1000 nM | C[C@@H](Nc1nc(N2CCN(C(=O)[C@@H]3CCCN3C(=O)OC(C)(C)C)CC2)ncc1Cl)c1ccc(Cl)cc1Cl [Example 1.050]
100 to 1000 nM | 100 to 1000 nM | C[C@@H](Nc1nc(N2CCN(C(=O)[C@H]3CCCN3C(=O)OC(C)(C)C)CC2)ncc1Cl)c1ccc(Cl)cc1Cl [Example 1.051]
< 100 nM | < 100 nM | C[C@@H](Nc1nc(N2CCN(C(=O)[C@@H]3CCCN3)CC2)ncc1Cl)c1ccc(Cl)cc1Cl [Example 1.052]
< 100 nM | < 100 nM | C[C@@H](Nc1nc(N2CCN(C(=O)[C@H]3CCCN3)CC2)ncc1Cl)c1ccc(Cl)cc1Cl [Example 1.053]
< 100 nM | < 100 nM | C[C@@H](Nc1nc(N2CCN(C3CCCN(CCC(=O)O)C3)CC2)ncc1Cl)c1ccc(Cl)cc1Cl (some centres unmarked) [Example 1.054]
< 100 nM | < 100 nM | C[C@@H](Nc1nc(N2CCN(C3CCCNC3)CC2)ncc1Cl)c1ccc(Cl)cc1Cl (some centres unmarked) [Example 1.055]
< 100 nM | < 100 nM | C[C@@H](Nc1nc(C2=CCN([C@H]3CCCN(CCC(N)=O)C3)CC2)ncc1Cl)c1ccc(Cl)cc1Cl [Example 1.056]
< 100 nM | < 100 nM | C[C@@H](Nc1nc(C2=CCN([C@H]3CCCN(CCC(=O)O)C3)CC2)ncc1Cl)c1ccc(Cl)cc1Cl [Example 1.057]

— patent US20230382894A1, “CCR4 ANTAGONISTS” (CHEMOCENTRYX, INC., priority 2022, published 2023)
